The values that follow come from article PMC11883425, “The synthesis and investigation of novel 3-benzoylbenzofurans and pyrazole derivatives for anti-HIV activity” (RSC Medicinal Chemistry, 2025).

Like-named read-outs stand apart in the source and are kept apart here.

A short description of data set [1]: Cytotoxicity in TZM-bl cells by MTT assay. Type of data set: cell-based. Particulars: human, MTT assay, 48 hours, mean ± SEM. The procedure:
(§1) All cell culture reagents and cell growth medium were purchased from Sigma-Aldrich/Merck. The cell lines are TZM-bl cells (HeLa cells derived cell that is genetically engineered to contain CD4 and CCR5/CXCR4 receptor) were obtained from NIH AIDS Reagent Program and HEK 293T (derived from human embryonic kidney cells) were received as donations from the lab of Dr Patience Mthunzi, Biophotonics laboratory, CSIR. […] The cells were cultured in T-75 culture flasks (Lasec SA (Pty) Ltd Johannesburg) in Dulbecco's modified Eagle's medium (DMEM) with 3.7 g L^−1 […], 0.05% (v/v) gentamicin/mL, 1% penicillin/streptomycin and 10% heat-inactivated fetal bovine serum (Celtic Molecular Diagnostics). All incubations for tissue cell culture were conducted in a 37 °C, 5% CO2, and 95% humidity incubator.
(§2) The cytotoxicity of compounds was evaluated in TZM-bl cells since these cells are susceptible to HIV infections and would be used for the evaluation of HIV entry inhibition by 3-benzoylbenzofurans and pyrazole derivatives.[74] MTT dye (3-(4,5-dimethylthiazol-2-yl)-2,5-diphenyltetrazolium bromide), which is reduced by viable cells to produce […] purple formazan, was then measured and correlated with cell viability.[75] TZM-bl cells were cultured to confluency in DMEM containing 10% FBS and harvested by centrifugation at 1200 × g for 5 minutes. The cells were counted at 1 × 10^5 cells per mL per well and were seeded overnight, followed by treatment with serially diluted compounds from 500 to 0.98 μM for 48 hours. The peripheral blood mononuclear cells (PBMCs) were isolated from the blood of HIV-negative volunteers, treated with phytohaemagglutinin-protein (PHA, 4 μg mL^−1) to stimulate the cells for 2 hours. PBMCs were diluted in RPMI-1640 medium, counted and 1 × 10^6 cells per mL were treated with compounds (500 to 0.98 μM) for 48 hours. Cells were harvested by centrifugation at 1200 × g for 5 minutes, and the supernatants were removed. For the PBMCs, MTS dye (3-(4,5-dimethylthiazol-2-yl)-5-(3-carboxymethoxyphenylo)-2-(4-sulfophenyl)-2H-tetrazolium) was used.[76] A 100 μL of tetrazolium dye (5 mg mL^−1 MTT prepared in DMEM or 1 : 9 dilution MTS prepared in RPMI-1640) was added to the wells and incubated for 4 to 24 hours. MTT samples were solubilized with 100 μL solubilization buffer (1 mL HCl: 9 mL isopropanol) for 30 minutes, and the absorbance reading was taken at 550 nm and 690 nm wavelengths. MTS sample readings were taken at 490 nm without a solubilization step using the SpectraMax^R Paradigm^R Multi-Mode Detection Platform plate reader (Molecular Devices, California, USA).

For a further data set, the system named is TZM-bl cells. Briefly: Cytotoxicity in TZM-bl cells by MTT assay. The format is cell-based. Particulars: pyrazole vs benzofuran precursor. The procedure: as §1, §2
A further data set concerns HIV-1 Q23 pseudovirus. Briefly: HIV-1 whole virus inhibition assay, Q23 pseudovirus (luciferase, TZM-bl cells). The format is cell-based. The method, then: (§3) The HIV pseudoviruses were produced from the plasmids that were kindly donated by Dr Mthunzi-Kufa (CSIR, South Africa). Competent DH5α cells and STBL2 cells were transformed with envelope (CAP210.2.00.E8 and Q23.17) and backbone plasmid (HIV-1 SG3 ΔEnv) through heat-shock at 42 °C for 90 seconds and cooled in ice for 5 minutes. The transformed cells were grown in Luria Bertani medium containing 100 μg mL^−1 ampicillin and glycerol stocks were prepared. The transformed cells were grown at 37 °C in a 200 rpm shaking incubator overnight and the plasmids were isolated from the cells using a GeneJET plasmid Miniprep Kit (ThermoFisher Scientific Inc). The purity of the isolated plasmids was assessed for purity using Nanodrop. The HEK 293T cells were co-transfected with the backbone (10 μg) and envelope plasmids (5 μg) using the PolyFect Transfection Reagent (QIAGEN N.V) for 8–12 hours and the transfected cells were grown for 48 hours producing pseudoviruses which were collected, and stocks stored at −80 °C.
(§4) The compounds were serial diluted from 100 to1.56 μM in 96 well plates (Separation Scientific SA (Pty) Ltd) and incubated with either CAP210 or Q23 pseudoviruses (200 TCID50) and incubated for 1 hour. The TZM-bl cells (1 × 10^5 cells per mL containing 7.5 μg mL^−1 DEAE-dextran) were added and incubated for 48 hours. The 96 well plates were centrifuged, and the supernatant was removed leaving only 50 μL in each well. The Bright-Glo™ Luciferase substrate (Anatech Instruments (Pty) Ltd) (50 μL) was added to each well and incubated for 2 minutes in the dark and chemiluminescence readings were taken in a Corning® 96-well white polystyrene plate using a SpectraMax® Paradigm® Multi-Mode Microplate Reader.

The test system of another data set is HIV-1 CAP210 pseudovirus. Briefly: HIV-1 whole virus inhibition assay, CAP210 pseudovirus (luciferase, TZM-bl cells). Type of data set: cell-based. As to conditions: for IC50: TZM-bl, 48 h, read-out: IC50 (μM) CAP210, CAP210 pseudovirus, TZM-bl cells, 48 hours. The method, then:
as §3, §4

For a further data set, the system named is CAP210 pseudovirus. Briefly: Time of drug addition assay, CAP210 pseudovirus in TZM-bl cells. The format is cell-based, HIV-1. Particulars: 3 μM, added 0, 2, 4, 6, 8 hours post-infection. The procedure: Fig. 5 Time of addition assay of CAP210 HIV infection treated with active compounds. TZM-bl cells were infected with CAP210 pseudoviruses and treated with compounds at various hours post-infection. NVP, 3g, and 4b were used at 3 μM, while 5f and 5h were used at 25 μM. The bars represent the mean ± SEM obtained from three independent experiments.
TZM-bl cells (1 × 10^5 cells per mL containing 7.5 μg mL^−1 DEAE-dextran) were infected with CAP210 pseudovirus at 400 TCID50 and incubated at 37 °C for 48 hours. The compounds were added to the wells at various time points (0, 2, 4, 6, and 8 hours) post-infection. […] After 48 hours, the cells were centrifuged at 1200 × g for 5 minutes, culture media was removed, leaving 50 μL, and Bright-Glo substrate (50 μL) was added to detect luciferase activity for 2 minutes at 37 °C. Inhibition of HIV pseudoviruses by active compounds was detected by reading for chemiluminescence using a Corning® 96-well white polystyrene using the SpectraMax® Paradigm® Multi-Mode Microplate Reader.

For data set [2], the system named is HIV-1 subtype C pseudoviruses. Particulars: cited from earlier work.
In a further data set the test system is various HIV-1 subtypes. As to conditions: literature reports; read-out: IC50 against various HIV-1 subtypes; cited from earlier work.
Where [3] appears, read: TZM-bl, 48 h, read-out: IC50 (μM) Q23, Q23 pseudovirus, TZM-bl cells, 48 hours.

On to `COc1ccc(OC)c(-c2n[nH]cc2-c2c(O)cc(C)c(OC)c2C)c1` [5a, 2-[3-(2,5-Dimethoxyphenyl)-1H-pyrazol-4-yl]-4-methoxy-3,5-dimethylphenol], for which the midpoint of cytotoxicity in data set [1], the CC50 at 48 h, lay at 88.9 ± 22.1 µM. Moreover, the “decrease in cytotoxicity versus precursor” value in the data set with TZM-bl cells amounted to 1 fold. For the same molecule, the half-inhibitory concentration (IC50) with HIV-1 Q23 pseudovirus (setting [3]) is 13.3 ± 1.12 µM; with HIV-1 CAP210 pseudovirus, 18.4 ± 3.2 µM.

For `Cc1ccnc2c1NC(=O)c1cccnc1N2C1CC1` [NVP, nevirapine, reference compound], the half-inhibitory concentration (IC50) in the data set on HIV-1 Q23 pseudovirus (setting [3]) was under 0.11 µM; with HIV-1 Q23 pseudovirus (read-out: IC50 (μM) Q23, Q23 pseudovirus, TZM-bl cells, 48 hours), 0.11 ± 0.004 µM; in the data set on HIV-1 CAP210 pseudovirus, 0.1 ± 0.002 µM; in data set [2], 30 nM; in the data set with various HIV-1 subtypes, about 30 nM. Besides, the “inhibition of Q23 infection” value in the data set with HIV-1 Q23 pseudovirus (all tested concentrations) is 99%. Besides, the “inhibition of CAP210 infection” value in the data set on HIV-1 CAP210 pseudovirus (all tested concentrations) worked out at 99%. Besides, the “inhibition of HIV infection by time of addition” value in the data set with CAP210 pseudovirus was “inhibit HIV infections for up to 8 hours”.

Turning to `Cc1cn([C@H]2C[C@H](N=[N+]=[N-])[C@@H](CO)O2)c(=O)[nH]c1=O` [zidovudine], the IC50 in data set [2] is 50 nM.
